Source: US9155752B2, “Liver function-improving agent” (UENO FINE CHEMICALS INDUSTRY, LTD., priority 2012, dated 2015)

Columns and labels:
[1] = test system: C57BL/6 male mice fed high fat diet; experiment: Blood AST value and blood ALT value after 8-week feeding (Test Example 1); format: in vivo; design: key to Blood ALT value, Significant difference: *: a significant difference was observed at 1% level of significance relative to group 3
Excerpt: (§1) Eight-week-old C57BL/6 male mice (CLEA Japan, Inc.) were divided at random into groups (each group: four animals) and then used. As a normal diet, solid diet MF (lipid component 5.3%, manufactured by Oriental Yeast Co., Ltd.) was used. As a high-fat diet, solid diet High Fat Diet 32 (lipid component 32.0%, manufactured by CLEA Japan, Inc.) was used. As a sample water, 2.5% by weight of aqueous sucrose solution, 2.25% by weight of aqueous maltitol solution, and 4.5% by weight of aqueous maltitol solution obtained by respectively dissolving, as a test substance, sucrose (manufactured by Wako Pure Chemical Industries, Ltd.) and maltitol (Whole Crystalline Maltitol Ueno 60M, having maltitol purity of 90%, manufactured by Ueno Fine Chemicals Industry, Ltd.) in distilled water were used. Distilled water was used as a negative sample. The sample water was administered by making it available ad libitum and the amount of sample water intake was recorded. The dose of sucrose per day calculated from the concentration of the sample water and the water intake was 3 g per 1 kg of body weight. The dose of maltitol per day calculated in the same manner as above was 2.7 g per 1 kg of body weight in mice receiving 2.25% aqueous maltitol solution, and 4.5 g per 1 kg of body weight in mice receiving 4.5% aqueous maltitol solution. The diet and the sample water (test substance aqueous solution or distilled water) listed in Table 1 were administered to mice in each group, and the animals were fed for 8 weeks. After 8-week test feeding, pentobarbital of 0.5 mg/10 g of body weight was intraperitoneally administered to mice, and blood was collected from the tail vein under deep anesthesia. With respect to the serum from the collected blood sample of mice, blood AST value and blood ALT value which are each an indicator of liver function were measured using a Transaminase C-II Test Wako Kit (Wako Pure Chemical Industries, Ltd.). A significant difference test by the t-test method was performed on blood AST values, blood ALT values, and blood ketone bodies values were evaluated by performing significant difference tests on these values via t-test.

[2] = test system: C57BL/6 male mice fed high fat diet; experiment: Blood ketone bodies value after 8-week feeding (Test Example 1); format: in vivo; design: key to Blood ketone bodies value, Significant difference: *: a significant difference was observed at 1% level of significance relative to group 3; settings: for Blood ketone bodies value (Mean ± Standard error): 8 weeks
Excerpt: as §1, with “Further, by using Precision Xceed β-Ketone Measuring Electrode (manufactured by Abbott Japan Co., Ltd.), ketone bodies” for “With respect to the serum from the collected blood sample of mice, blood AST”, “in blood,” for “and blood ALT value”, “is” for “are each”, “fat burning in the liver, was measured.” for “liver function were measured using a Transaminase C-II Test Wako Kit (Wako Pure Chemical Industries, Ltd.).”

[3] = Group 3: high fat diet + 2.5% aqueous sucrose solution ad libitum, 8 weeks (3 g/kg/day)
[4] = Group 4: high fat diet + 2.25% aqueous maltitol solution ad libitum, 8 weeks (2.7 g/kg/day)
[5] = Group 5: high fat diet + 4.5% aqueous maltitol solution ad libitum, 8 weeks (4.5 g/kg/day)

`OC[C@H]1O[C@@](CO)(O[C@H]2O[C@H](CO)[C@@H](O)[C@H](O)[C@H]2O)[C@@H](O)[C@@H]1O` [sucrose, reference compound] was tested, and the “Blood ALT value (Mean ± Standard error)” value [1, 3] was 50 ± 12 IU/L, the “Blood AST value (Mean ± Standard error)” value [1, 3] was 244 ± 107 IU/L and the “Blood ketone bodies value (Mean ± Standard error)” value ([2]; Group 3: high fat diet + 2.5% aqueous sucrose solution) was 0.08 ± 0.03 mmol/L.

`OC[C@@H](O)[C@@H](O[C@H]1O[C@H](CO)[C@@H](O)[C@H](O)[C@H]1O)[C@H](O)[C@@H](O)CO` [maltitol] was tested, and the “Blood AST value, change in words” value ([1]; Group 4 (2.25% aqueous maltitol solution) relative to group 3 (sucrose)) was “tendency to be decreased”, the “Blood ALT value (Mean ± Standard error)” value [1, 4] was 41 ± 14 IU/L and the “Blood AST value (Mean ± Standard error)” value [1, 4] was 205 ± 77 IU/L. The “Blood ALT value, change in words” value ([1]; Group 5 (4.5% aqueous maltitol solution) compared to group 3 (sucrose)) was “significantly decreasing the blood ALT value”, the “Blood AST value, change in words” value ([1]; Group 5 (4.5% aqueous maltitol solution) compared with group 1 (normal diet + distilled water)) was “decreased to a level equivalent to that in group 1” and the “Blood ALT value, Significant difference” value ([1]; Group 5 (4.5% aqueous maltitol solution) relative to group 3 (sucrose), t-test) was “*”. For the same compound, the “Blood ALT value (Mean ± Standard error)” value [1, 5] was 11 ± 1 IU/L, the “Blood AST value (Mean ± Standard error)” value [1, 5] was 54 ± 3 IU/L and the “Blood ketone bodies value, change in words” value ([2]; Group 4 (2.25% aqueous maltitol solution) in comparison with group 3 (sucrose)) was “significant improvement effect”. The “Blood ketone bodies value, Significant difference” value ([2]; Group 4 (2.25% aqueous maltitol solution) relative to group 3 (sucrose), t-test) was “*”, the “Blood ketone bodies value (Mean ± Standard error)” value ([2]; Group 4: high fat diet + 2.25% aqueous maltitol solution) was 0.20 ± 0.04 mmol/L and the “Blood ketone bodies value, change in words” value ([2]; Group 5 (4.5% aqueous maltitol solution) relative to group 3 (sucrose)) was “increased”. For the same compound, the “Blood ketone bodies value (Mean ± Standard error)” value ([2]; Group 5: high fat diet + 4.5% aqueous maltitol solution) was 0.18 ± 0.05 mmol/L.
